{"source": "BigSolDB 2.1"}
{"smiles": "OCCOc1ccc2ccccc2c1-c1c(OCCO)ccc2ccccc12", "values": [{"measurement": "solubility (mole fraction)", "setting": "in acetone, 283.15 K", "value": 0.00658}, {"measurement": "solubility (mole fraction)", "setting": "in acetone, 288.15 K", "value": 0.00893}, {"measurement": "solubility (mole fraction)", "setting": "in acetone, 293.15 K", "value": 0.0121}, {"measurement": "solubility (mole fraction)", "setting": "in acetone, 298.15 K", "value": 0.0153}, {"measurement": "solubility (mole fraction)", "setting": "in acetone, 303.15 K", "value": 0.0212}, {"measurement": "solubility (mole fraction)", "setting": "in acetone, 308.15 K", "value": 0.027}, {"measurement": "solubility (mole fraction)", "setting": "in acetone, 313.15 K", "value": 0.0352}, {"measurement": "solubility (mole fraction)", "setting": "in acetone, 318.15 K", "value": 0.0441}, {"measurement": "solubility (mole fraction)", "setting": "in acetone, 323.15 K", "value": 0.0567}, {"measurement": "solubility (mole fraction)", "setting": "in ethyl acetate, 283.15 K", "value": 0.00227}, {"measurement": "solubility (mole fraction)", "setting": "in ethyl acetate, 288.15 K", "value": 0.00328}, {"measurement": "solubility (mole fraction)", "setting": "in ethyl acetate, 293.15 K", "value": 0.00464}, {"measurement": "solubility (mole fraction)", "setting": "in ethyl acetate, 298.15 K", "value": 0.00604}, {"measurement": "solubility (mole fraction)", "setting": "in ethyl acetate, 303.15 K", "value": 0.00802}, {"measurement": "solubility (mole fraction)", "setting": "in ethyl acetate, 308.15 K", "value": 0.0104}, {"measurement": "solubility (mole fraction)", "setting": "in ethyl acetate, 313.15 K", "value": 0.0133}, {"measurement": "solubility (mole fraction)", "setting": "in ethyl acetate, 318.15 K", "value": 0.0174}, {"measurement": "solubility (mole fraction)", "setting": "in ethyl acetate, 323.15 K", "value": 0.0229}, {"measurement": "solubility (mole fraction)", "setting": "in ethyl formate, 283.15 K", "value": 0.00207}, {"measurement": "solubility (mole fraction)", "setting": "in ethyl formate, 288.15 K", "value": 0.00284}, {"measurement": "solubility (mole fraction)", "setting": "in ethyl formate, 293.15 K", "value": 0.00399}, {"measurement": "solubility (mole fraction)", "setting": "in ethyl formate, 298.15 K", "value": 0.00539}, {"measurement": "solubility (mole fraction)", "setting": "in ethyl formate, 303.15 K", "value": 0.00721}, {"measurement": "solubility (mole fraction)", "setting": "in ethyl formate, 308.15 K", "value": 0.00964}, {"measurement": "solubility (mole fraction)", "setting": "in ethyl formate, 313.15 K", "value": 0.0123}, {"measurement": "solubility (mole fraction)", "setting": "in ethyl formate, 318.15 K", "value": 0.0161}, {"measurement": "solubility (mole fraction)", "setting": "in ethyl formate, 323.15 K", "value": 0.0209}, {"measurement": "solubility (mole fraction)", "setting": "in isobutanol, 283.15 K", "value": 0.000512}, {"measurement": "solubility (mole fraction)", "setting": "in isobutanol, 288.15 K", "value": 0.000733}, {"measurement": "solubility (mole fraction)", "setting": "in isobutanol, 293.15 K", "value": 0.00108}, {"measurement": "solubility (mole fraction)", "setting": "in isobutanol, 298.15 K", "value": 0.00147}, {"measurement": "solubility (mole fraction)", "setting": "in isobutanol, 303.15 K", "value": 0.00209}, {"measurement": "solubility (mole fraction)", "setting": "in isobutanol, 308.15 K", "value": 0.00291}, {"measurement": "solubility (mole fraction)", "setting": "in isobutanol, 313.15 K", "value": 0.00388}, {"measurement": "solubility (mole fraction)", "setting": "in isobutanol, 318.15 K", "value": 0.005}, {"measurement": "solubility (mole fraction)", "setting": "in isobutanol, 323.15 K", "value": 0.00655}, {"measurement": "solubility (mole fraction)", "setting": "in isobutyl acetate, 283.15 K", "value": 0.00105}, {"measurement": "solubility (mole fraction)", "setting": "in isobutyl acetate, 288.15 K", "value": 0.00158}, {"measurement": "solubility (mole fraction)", "setting": "in isobutyl acetate, 293.15 K", "value": 0.0022}, {"measurement": "solubility (mole fraction)", "setting": "in isobutyl acetate, 298.15 K", "value": 0.00296}, {"measurement": "solubility (mole fraction)", "setting": "in isobutyl acetate, 303.15 K", "value": 0.00396}, {"measurement": "solubility (mole fraction)", "setting": "in isobutyl acetate, 308.15 K", "value": 0.00518}, {"measurement": "solubility (mole fraction)", "setting": "in isobutyl acetate, 313.15 K", "value": 0.00692}, {"measurement": "solubility (mole fraction)", "setting": "in isobutyl acetate, 318.15 K", "value": 0.00911}, {"measurement": "solubility (mole fraction)", "setting": "in isobutyl acetate, 323.15 K", "value": 0.0117}, {"measurement": "solubility (mole fraction)", "setting": "in isopropanol, 283.15 K", "value": 0.000762}, {"measurement": "solubility (mole fraction)", "setting": "in isopropanol, 288.15 K", "value": 0.00102}, {"measurement": "solubility (mole fraction)", "setting": "in isopropanol, 293.15 K", "value": 0.00132}, {"measurement": "solubility (mole fraction)", "setting": "in isopropanol, 298.15 K", "value": 0.00187}, {"measurement": "solubility (mole fraction)", "setting": "in isopropanol, 303.15 K", "value": 0.00263}, {"measurement": "solubility (mole fraction)", "setting": "in isopropanol, 308.15 K", "value": 0.00351}, {"measurement": "solubility (mole fraction)", "setting": "in isopropanol, 313.15 K", "value": 0.00487}, {"measurement": "solubility (mole fraction)", "setting": "in isopropanol, 318.15 K", "value": 0.00649}, {"measurement": "solubility (mole fraction)", "setting": "in isopropanol, 323.15 K", "value": 0.00847}, {"measurement": "solubility (mole fraction)", "setting": "in methyl acetate, 283.15 K", "value": 0.00297}, {"measurement": "solubility (mole fraction)", "setting": "in methyl acetate, 288.15 K", "value": 0.00423}, {"measurement": "solubility (mole fraction)", "setting": "in methyl acetate, 293.15 K", "value": 0.00595}, {"measurement": "solubility (mole fraction)", "setting": "in methyl acetate, 298.15 K", "value": 0.00778}, {"measurement": "solubility (mole fraction)", "setting": "in methyl acetate, 303.15 K", "value": 0.0102}, {"measurement": "solubility (mole fraction)", "setting": "in methyl acetate, 308.15 K", "value": 0.0137}, {"measurement": "solubility (mole fraction)", "setting": "in methyl acetate, 313.15 K", "value": 0.0173}, {"measurement": "solubility (mole fraction)", "setting": "in methyl acetate, 318.15 K", "value": 0.0218}, {"measurement": "solubility (mole fraction)", "setting": "in methyl acetate, 323.15 K", "value": 0.0292}, {"measurement": "solubility (mole fraction)", "setting": "in n-butanol, 283.15 K", "value": 0.000873}, {"measurement": "solubility (mole fraction)", "setting": "in n-butanol, 288.15 K", "value": 0.00119}, {"measurement": "solubility (mole fraction)", "setting": "in n-butanol, 293.15 K", "value": 0.00168}, {"measurement": "solubility (mole fraction)", "setting": "in n-butanol, 298.15 K", "value": 0.00242}, {"measurement": "solubility (mole fraction)", "setting": "in n-butanol, 303.15 K", "value": 0.00317}, {"measurement": "solubility (mole fraction)", "setting": "in n-butanol, 308.15 K", "value": 0.00428}, {"measurement": "solubility (mole fraction)", "setting": "in n-butanol, 313.15 K", "value": 0.0058}, {"measurement": "solubility (mole fraction)", "setting": "in n-butanol, 318.15 K", "value": 0.00782}, {"measurement": "solubility (mole fraction)", "setting": "in n-butanol, 323.15 K", "value": 0.0109}, {"measurement": "solubility (mole fraction)", "setting": "in n-butyl acetate, 283.15 K", "value": 0.00136}, {"measurement": "solubility (mole fraction)", "setting": "in n-butyl acetate, 288.15 K", "value": 0.00186}, {"measurement": "solubility (mole fraction)", "setting": "in n-butyl acetate, 293.15 K", "value": 0.00286}, {"measurement": "solubility (mole fraction)", "setting": "in n-butyl acetate, 298.15 K", "value": 0.00389}, {"measurement": "solubility (mole fraction)", "setting": "in n-butyl acetate, 303.15 K", "value": 0.00486}, {"measurement": "solubility (mole fraction)", "setting": "in n-butyl acetate, 308.15 K", "value": 0.00646}, {"measurement": "solubility (mole fraction)", "setting": "in n-butyl acetate, 313.15 K", "value": 0.0086}, {"measurement": "solubility (mole fraction)", "setting": "in n-butyl acetate, 318.15 K", "value": 0.0108}, {"measurement": "solubility (mole fraction)", "setting": "in n-butyl acetate, 323.15 K", "value": 0.0144}, {"measurement": "solubility (mole fraction)", "setting": "in n-pentanol, 283.15 K", "value": 0.000827}, {"measurement": "solubility (mole fraction)", "setting": "in n-pentanol, 288.15 K", "value": 0.00116}, {"measurement": "solubility (mole fraction)", "setting": "in n-pentanol, 293.15 K", "value": 0.00163}, {"measurement": "solubility (mole fraction)", "setting": "in n-pentanol, 298.15 K", "value": 0.00227}, {"measurement": "solubility (mole fraction)", "setting": "in n-pentanol, 303.15 K", "value": 0.00303}, {"measurement": "solubility (mole fraction)", "setting": "in n-pentanol, 308.15 K", "value": 0.00413}, {"measurement": "solubility (mole fraction)", "setting": "in n-pentanol, 313.15 K", "value": 0.00551}, {"measurement": "solubility (mole fraction)", "setting": "in n-pentanol, 318.15 K", "value": 0.00725}, {"measurement": "solubility (mole fraction)", "setting": "in n-pentanol, 323.15 K", "value": 0.00966}, {"measurement": "solubility (mole fraction)", "setting": "in n-propanol, 283.15 K", "value": 0.00111}, {"measurement": "solubility (mole fraction)", "setting": "in n-propanol, 288.15 K", "value": 0.00143}, {"measurement": "solubility (mole fraction)", "setting": "in n-propanol, 293.15 K", "value": 0.00189}, {"measurement": "solubility (mole fraction)", "setting": "in n-propanol, 298.15 K", "value": 0.00268}, {"measurement": "solubility (mole fraction)", "setting": "in n-propanol, 303.15 K", "value": 0.00369}, {"measurement": "solubility (mole fraction)", "setting": "in n-propanol, 308.15 K", "value": 0.00494}, {"measurement": "solubility (mole fraction)", "setting": "in n-propanol, 313.15 K", "value": 0.00644}, {"measurement": "solubility (mole fraction)", "setting": "in n-propanol, 318.15 K", "value": 0.00847}, {"measurement": "solubility (mole fraction)", "setting": "in n-propanol, 323.15 K", "value": 0.012}, {"measurement": "solubility (mole fraction)", "setting": "in toluene, 283.15 K", "value": 0.000885}, {"measurement": "solubility (mole fraction)", "setting": "in toluene, 288.15 K", "value": 0.00122}, {"measurement": "solubility (mole fraction)", "setting": "in toluene, 293.15 K", "value": 0.00176}, {"measurement": "solubility (mole fraction)", "setting": "in toluene, 298.15 K", "value": 0.0025}, {"measurement": "solubility (mole fraction)", "setting": "in toluene, 303.15 K", "value": 0.00331}, {"measurement": "solubility (mole fraction)", "setting": "in toluene, 308.15 K", "value": 0.00447}, {"measurement": "solubility (mole fraction)", "setting": "in toluene, 313.15 K", "value": 0.00595}, {"measurement": "solubility (mole fraction)", "setting": "in toluene, 318.15 K", "value": 0.00794}, {"measurement": "solubility (mole fraction)", "setting": "in toluene, 323.15 K", "value": 0.0104}]}
